Measurements reported in PubChem BioAssay (NCI).
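Protocol summary: plate cells (96-well), add compound at 5 concentrations, incubate 48 h, interpolate endpoints linearly. Here, GI50 denotes the concentration required for 50% inhibition of growth. TGI marks complete inhibition of growth.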

What was measured:
Assay in all cases: NCI anticancer screen, dose series, 48 h
NCI-H226 lung = system: NCI-H226 lung
NCI-H23 lung = system: NCI-H23 lung
NCI-H460 lung = system: NCI-H460 lung
NCI-H522 lung = system: NCI-H522 lung
NCI/ADR-RES ovarian = system: NCI/ADR-RES ovarian
OVCAR-3 ovarian = system: OVCAR-3 ovarian
OVCAR-4 ovarian = system: OVCAR-4 ovarian
OVCAR-5 ovarian = system: OVCAR-5 ovarian
OVCAR-8 ovarian = system: OVCAR-8 ovarian
PC-3 prostate = system: PC-3 prostate
RPMI-8226 leukemia = system: RPMI-8226 leukemia
RXF 393 renal = system: RXF 393 renal
SF-268 CNS = system: SF-268 CNS
SF-295 CNS = system: SF-295 CNS
SF-539 CNS = system: SF-539 CNS
SK-MEL-2 melanoma = system: SK-MEL-2 melanoma
SK-MEL-28 melanoma = system: SK-MEL-28 melanoma
SK-MEL-5 melanoma = system: SK-MEL-5 melanoma
SK-OV-3 ovarian = system: SK-OV-3 ovarian
SN12C renal = system: SN12C renal
SNB-19 CNS = system: SNB-19 CNS
SNB-75 CNS = system: SNB-75 CNS
SR leukemia = system: SR leukemia
SW-620 colon = system: SW-620 colon
T-47D breast = system: T-47D breast
TK-10 renal = system: TK-10 renal
U251 CNS = system: U251 CNS
UACC-257 melanoma = system: UACC-257 melanoma
UACC-62 melanoma = system: UACC-62 melanoma
UO-31 renal = system: UO-31 renal

Cc1ccc(C2CC(c3ccc(NC(=S)Nc4ccccc4)cc3)=NN2c2ccc(S(N)(=O)=O)cc2)cc1 (centres undefined)
TGI (NCI-H226 lung): 19.1 µM | GI50 (NCI-H23 lung): 5.79 µM | TGI (NCI-H23 lung): 34 µM | GI50 (NCI-H460 lung): 3.1 µM | TGI (NCI-H460 lung): 11.5 µM | GI50 (NCI-H522 lung): 2.84 µM | TGI (NCI-H522 lung): 14.8 µM | GI50 (NCI/ADR-RES ovarian): 4.04 µM | TGI (NCI/ADR-RES ovarian): 49.5 µM | GI50 (OVCAR-3 ovarian): 3.28 µM | TGI (OVCAR-3 ovarian): 22.7 µM | GI50 (OVCAR-4 ovarian): 4.06 µM | TGI (OVCAR-4 ovarian): 33.5 µM | GI50 (OVCAR-5 ovarian): 4.54 µM | TGI (OVCAR-5 ovarian): 17.9 µM | GI50 (OVCAR-8 ovarian): 5.96 µM | TGI (OVCAR-8 ovarian): 67.8 µM | GI50 (PC-3 prostate): 2.75 µM | TGI (PC-3 prostate): 14 µM | GI50 (RPMI-8226 leukemia): 3.45 µM | TGI (RPMI-8226 leukemia): > 100 µM | GI50 (RXF 393 renal): 2.99 µM | TGI (RXF 393 renal): 12.7 µM | GI50 (SF-268 CNS): 4.11 µM | TGI (SF-268 CNS): > 100 µM | GI50 (SF-295 CNS): 3.28 µM | TGI (SF-295 CNS): 15.7 µM | GI50 (SF-539 CNS): 5.4 µM | TGI (SF-539 CNS): 19.8 µM | GI50 (SK-MEL-2 melanoma): 6.22 µM | TGI (SK-MEL-2 melanoma): 21.1 µM | GI50 (SK-MEL-28 melanoma): 4.69 µM | TGI (SK-MEL-28 melanoma): 16.4 µM | GI50 (SK-MEL-5 melanoma): 4.83 µM | TGI (SK-MEL-5 melanoma): 17.8 µM | GI50 (SK-OV-3 ovarian): 11 µM | TGI (SK-OV-3 ovarian): 32.9 µM | GI50 (SN12C renal): 4.23 µM | TGI (SN12C renal): 29.5 µM | GI50 (SNB-19 CNS): 4.97 µM | TGI (SNB-19 CNS): 23.2 µM | GI50 (SNB-75 CNS): 2.01 µM | TGI (SNB-75 CNS): 14.6 µM | GI50 (SR leukemia): 3.3 µM | TGI (SR leukemia): 27.2 µM | GI50 (SW-620 colon): 3.52 µM | TGI (SW-620 colon): 26.6 µM | GI50 (T-47D breast): 3.16 µM | TGI (T-47D breast): 17.5 µM | GI50 (TK-10 renal): 3.09 µM | TGI (TK-10 renal): 17.6 µM | GI50 (U251 CNS): 5.29 µM | TGI (U251 CNS): 24.2 µM | GI50 (UACC-257 melanoma): 6.4 µM | TGI (UACC-257 melanoma): 30.9 µM | GI50 (UACC-62 melanoma): 3.45 µM | TGI (UACC-62 melanoma): 16 µM | GI50 (UO-31 renal): 2.67 µM | TGI (UO-31 renal): 13.3 µM
